This is an account of results in patent US20060084684A1, “Topically applicable pharmaceutical preparation” (Altana Pharma AG, priority 2002, published 2006).

Structures are written as SMILES. Values after ≈ are worked out from the molar mass of the structure shown.

A short description of series [1]: Kinetic parameters after oral administration (comparison). Format: in vivo, rat. The procedure: Comparison with kinetic parameters after oral administration of 1 mg/kg: […]
The next series can be described thus: Solubility in water. It counts as physicochemical. Particulars: at 21° C. The source says: For treating disorders of the skin it Is desirable to provide the active pharmaceutical ingredient in a pharmaceutical preparation suitable for topical application.

Usually solubility stands for the concentration that dissolves in the medium under given conditions. A high value points to much dissolved substance.

Consider `O=C(Nc1c(Cl)cncc1Cl)c1ccc(OC(F)F)c(OCC2CC2)c1` [roflumilast, N-(3,5-dichloropyrid-4-yl)-3-cyclopropylmethoxy-4-difluoromethoxybenzamide], for which the “excretion with the urine” value in series [1] (oral administration) is 18.4 % of the dose. For the same compound, in series [1] (oral administration of 1 mg/kg), the “AUC(0-24 h)” value amounted to 3.10 mg equiv./l×h and the Cmax is given as 0.225 mg equiv./l. For the same compound, the concentration in solution in “Solubility in water” (solubility) came to 0.53 µg/mL (≈ 1.31 µM).
